Test results: patent US20050009772A1, “Methods and compositions for the treatment of glaucoma and other retinal diseases” (The Regents of the University of California, priority 2003, published 2005)
Entries after “also recorded” stand apart in the source; their conditions may differ.

Tests used:
[1] = test system: TUNEL positive cells in the RGCL; test: TUNEL analysis of RGCL after 1 week of IOP elevation (Experiment 3); type: in vivo, rat
Method: Experiment 3 was performed to investigate the inhibition of apoptosis with GGA administration after 1 week of IOP elevation (n=56).
Rats were anesthetized with intramuscular injections of 0.8 ml/kg of the anesthetic cocktail described above. […] At the end of the procedure, Tobrex ophthalmic ointment (tobramycin 0.3%; Alcon, Fort Worth, Tex.) was applied topically. Five days after intracameral injection of India ink, a dark band at the limbus was noted due to the aggregation of carbon particles in the trabecular meshwork.38 After anesthesia, approximately 200 laser burns were delivered ab externo to the pigmented trabecular band at laser settings of 200 μm diameter, 200 mW power and 0.2 seconds duration. Three weeks after the first laser treatment, another trabecular laser photocoagulation was performed without further injection of ink.
Four-μm thick paraffin embedded sections along the vertical meridian of the optic nerve head were collected and a minimum of 6 retinal sections (8 μm apart) per eyeball was used for counting the number of TUNEL positive cells in the RGCL. Only full length and undamaged retinal sections without oblique orientation were used. The procedures described in the ApopTag Peroxidase In Situ Apoptosis Detection Kit (Intergen Co., Purchase, N.Y.) were followed and diaminobenzidine (Sigma, St. Louis, Mo.) was used as a color substrate. Counting was performed by two masked investigators with light microscopy, and averaged.

HSP72 [2] = test: Western blot for HSP72 in enriched RGC fraction after systemic administration of GGA (Experiment 1); type: in vivo, rat; conditions: GGA 200 mg/kg daily i.p.
Method: Experiment 1 was performed to evaluate the expression of HSP72 and HSC70 in RGCs after systemic administration of GGA with Western blot analysis and immunohistochemistry. For Western blotting, twelve rats were equally divided into 6 groups. Three groups of animals were given intraperitoneal injections of GGA 200 mg/kg daily and were euthanized after 1-, 3- or 7 days of administration of GGA. Three control groups were intraperitoneally administered 1) saline-vehicle daily for 7 days; 2) GGA with 4 mg/kg of quercetin (Sigma, St. Louis, Mo.) daily for 7 days; and 3) untreated animals. Enriched RGC fraction was harvested from 2 retinas of each group and used for Western blot analysis. The same experiment for isolation of RGCs and Western blotting was repeated with the other 2 retinas-from each group.
A solution of 80 mg/mL GGA was prepared in saline (Balanced salt solution; Alcon Laboratories, Inc., Fort Worth, Tex.) and emulsified for one hour in an ultrasonic generator (Branson Ultrasonic Corp., Danbury, Conn.) immediately before administration. Intraperitoneal injections of GGA were given at a dose of 200 mg/kg. Saline-vehicle was prepared and administered in the same fashion in vehicle-treated control groups.
A previously described method was modified to partially purify RGCs from other retinal cells in rat retinas.38 Briefly, two dissected rat retinas from each subgroup were washed in 2.5 ml of calcium- and magnesium-free phosphate buffered saline (PBS) at pH 7.4, and incubated in 1.25 ml of PBS containing 0.5 mg/ml trypsin and 0.01% deoxyribonuclease for 15 minutes at 37° C. This was followed by washing the retinas twice in 2.5 ml of minimal essential medium (MEM) containing 10% (vol/vol) fetal bovine serum. The retinas were subsequently washed in 2.5 ml of MEM twice and dissociated in 3 ml of MEM. The cell suspension was then mixed with 1.5 ml of 30% metrizamide (ICN Biomedicals, Inc., Aurora, Ohio) in MEM to a final concentration of 10 metrizamide. This mixture was then overlaid with 5% metrizamide in MEM, and the gradient was centrifuged at 4500 rpm (HB-4; Sorvall Instruments, Newtown, Conn.) for 25 minutes at 4° C. The cells in the 5% to 10% interface were collected. and washed in 25 ml of cold MEM. The washed cells were pelleted by centrifugation at 250×g for 10 minutes (Juan 3000C centrifuge, Winchester, Va.). The cells were then resuspended in 400 μl of MEM buffer, and the protein concentration in the cell suspension was measured with a bicinchoninic acid (BCA) protein assay kit (Pierce, Rockford, Ill.).
Western blot analysis was performed according to the procedure described by Towbin et al.39 Aliquots of 20 μg of protein from enriched RGCs were separated on a 12% SDS-polyacrylamide minigel (Bio-Rad, Hercules, Calif.) and transferred to the membrane (Immunobilon-P; Millipore Corporation, Bedford, Mass.). The membrane was blocked by incubation in 0.1% Tween-20 in 100 mM Tris-buffered saline containing 10% nonfat dried milk for 1 hour. The membranes were incubated with mouse monoclonal antibody against HSP72 (1:1000; StressGen Biotechnologies Corp., Victoria, British Columbia, Canada) or with rat monoclonal antibody against HSC70 (1:1000; StressGen) overnight and then biotinylated rabbit anti-mouse secondary antibody (1:500; Amersham Pharmacia Biotech, Inc., Piscataway, N.J.) or biotinylated goat anti-rat secondary antibody (1:500; Amersham Pharmacia) for 1 hour. This was followed by incubation with streptavidin-conjugated horseradish peroxidase (1:2000; Amersham Pharmacia) for 40 minutes. The immunoreactive bands were detected by chemiluminescence with an enhanced chemiluminescence Western blot reagent (Amersham Pharmacia).

HSP72 [3] = test: Quantitative immunohistochemical analysis of HSP72 in the RGCL after 1 week of IOP elevation (Experiment 3); type: in vivo, rat; conditions: quercetin = co-administered with GGA
Method: (§1) TdT-mediated biotin-dUTP nick end labeling (TUNEL) and immunohistochemical analysis for HSP72 and HSC70 were performed.
(§2) Animals were deeply anesthetized with intramuscular injections of 0.8 ml/kg of a cocktail of 5 ml ketamine (100 mg/ml), 2.5 ml xylazine (20 mg/ml), 1.0 ml acepromazine (10 mg/ml), and 1.5 ml normal saline. Then they were transcardially perfused with 4% paraformaldehyde in 0.1 M phosphate buffer. The enucleated eyeballs were immersed in fixative for 1 hour, bisected and post-fixed overnight. The eyes were embedded in paraffin and sectioned at a four-μm thickness along the vertical meridian through the optic nerve head. After deparaffinization and hydration, a species-specific Vectastain ABC kit (Vector Laboratories, Inc., Burlingame, Calif.) was chosen to match the species of primary antibody and the manufacturer's procedures were followed. The tissue sections were incubated with blocking serum solution in PBS for 1 hour. This was followed by incubation with primary antibody at 4° C overnight. The antibodies were mouse monoclonal antibody against HSP72 (1:500; StressGen Biotechnologies Corp., Victoria, British Columbia, Canada), goat polyclonal antibody against HSP72 (1:1000; Santa Cruz Biotechnology, Inc., Santa Cruz, Calif.) or rat monoclonal antibody against HSC70 (1:200; StressGen). Antigen-antibody complexes were detected by an avidin-biotin-peroxidase technique (Vectastain ABC Kit; Vector Laboratories). Diaminobenzidine (DAB) was used to produce a brown color in the target tissue and the slides were permanently mounted. As a negative control, alternate retinal section was incubated with blocking solution by replacing the primary antibody or with anti-rabbit secondary antibody by replacing the original secondary antibody.
Immunohistochemical staining was analyzed quantitatively with a computer-assisted image processing unit (Image-Pro Plus software, Media Cybernetics, Silver Spring, Md.) and the “count-measure” function. Images of immuno-stained sections were captured with a digital camera (Cool snap, RS Photometric, Tucson, Ariz.) attached to the microscope (Axio plan, Carl Zeiss, Oberkochen, Germany) at 630× magnification under oil immersion. The system was calibrated according to the supplier's manual before the analysis. For each digital image, all individual cells in the RGCL were marked by a masked examiner and the optical density of each cell was measured. The relative intensities of cells in the RGCL were measured and averaged (±SEM) to yield a single value representing one retina.

HSC70 = test: Quantitative immunohistochemical analysis of HSC70 in the RGCL after 1 week of IOP elevation (Experiment 3); type: in vivo, rat; conditions: among all the groups, 1 week after laser
Method: as §1
Animals were deeply anesthetized with intramuscular injections of 0.8 ml/kg of a cocktail of 5 ml ketamine (100 mg/ml), 2.5 ml xylazine (20 mg/ml), 1.0 ml acepromazine (10 mg/ml), and 1.5 ml normal saline. Then they were transcardially perfused with 4% paraformaldehyde in 0.1 M phosphate buffer. The enucleated eyeballs were immersed in fixative for 1 hour, bisected and post-fixed overnight. The eyes were embedded in paraffin and sectioned at a four-μm thickness along the vertical meridian through the optic nerve head. […] Antigen-antibody complexes were detected by an avidin-biotin-peroxidase technique (Vectastain ABC Kit; Vector Laboratories). […]
Immunohistochemical staining was analyzed quantitatively with a computer-assisted image processing unit (Image-Pro Plus software, Media Cybernetics, Silver Spring, Md.) and the “count-measure” function. […] For each digital image, all individual cells in the RGCL were marked by a masked examiner and the optical density of each cell was measured. The relative intensities of cells in the RGCL were measured and averaged (±SEM) to yield a single value representing one retina.

[4] = test system: cells in the retinal ganglion cell layer (RGCL); test: Counting of cresyl violet-stained cells in the RGCL in rat glaucoma model (Experiment 2); type: in vivo
Method: GGA was then given twice a week at the same dose until euthanasia. Sustained elevation of intraocular pressure (IOP) was maintained by performing trabecular laser photocoagulation three weeks after the first photocoagulation. […] IOP and body weight were measured once a week. After 5 weeks of IOP elevation, the number of retrogradely labeled RGCs with dextran tetramethylrhodamine (DTMR) was counted (n=53). The grading of optic nerve injury and the counting of cresyl violet-stained cells in the retinal ganglion cell layer (RGCL) was also performed (n=54).
Rats were anesthetized with intramuscular injections of 0.8 ml/kg of the anesthetic cocktail described above. A previously published procedure was modified to produce chronic moderately elevated IOP unilaterally, while the untreated contralateral eye served as the comparative control.40 Animals were injected intracamerally with 10 μl of 35% India ink (Becton Dickinson, Cockeysville, Md.) in 0.01 M PBS after removing a similar volume of aqueous. At the end of the procedure, Tobrex ophthalmic ointment (tobramycin 0.3%; Alcon, Fort Worth, Tex.) was applied topically. Five days after intracameral injection of India ink, a dark band at the limbus was noted due to the aggregation of carbon particles in the trabecular meshwork.38 After anesthesia, approximately 200 laser burns were delivered ab externo to the pigmented trabecular band at laser settings of 200 μm diameter, 200 mW power and 0.2 seconds duration. Three weeks after the first laser treatment, another trabecular laser photocoagulation was performed without further injection of ink.
Corresponding loss of cells from the RGCL was evaluated by counting cells in the RGCL in cresyl violet-stained retinas. After collecting the optic nerves, enucleated eyeballs were postfixed in 10% neutral buffered formalin for 1 hour and washed in 0.1 M phosphate buffer (pH 7.4). The retinas were dissected and flat mounted on a slide, vitreal side up. Four radial cuts were made in the peripheral retinas. The specimens were dried overnight, stained with 1% cresyl violet, dehydrated, and covered with coverslips. Morphologically distinguishable glial cells and vascular endothelial cells were not counted. Cells with cytoplasm rich in Nissl substance and with irregular outlines were counted as neurons.43 The numbers of neurons in the RGCL in regions 1 mm (posterior), 2 mm (mid-peripheral) and 3 mm (peripheral) from the center of the optic nerve head were taken with an eye-piece reticule of a microscope at 400× magnification. The counting was performed by two investigators in a masked fashion and averaged.

HSP72 [5] = test: Immunohistochemical staining for HSP72 on retinal sections after GGA administration (Experiment 1); type: in vivo, rat
Method: Three experiments are summarized here, and details are provided in the subsequent sections. […] For Western blotting, twelve rats were equally divided into 6 groups. […] Enriched RGC fraction was harvested from 2 retinas of each group and used for Western blot analysis. The same experiment for isolation of RGCs and Western blotting was repeated with the other 2 retinas-from each group.
as §2

Q: For Geranylgeranylacetone [GGA], which “inhibition of cell death” value ([1]; 1 week of IOP elevation) is on record?
A: 57%

Q: What about the “number of TUNEL positive cells in the RGCL” value ([1]; 1 week of IOP elevation) of the same substance?
A: 0.53±0.11 per retinal section

Q: What about the “effect on number of TUNEL positive cells (in words)” value ([1]; elevated IOP retinas, 1 week, quercetin = co-administered with GGA) of the same substance?
A: significantly reduced

Q: And the “immunoreactivity of HSP72 in RGCs (immunoblot)” value (“immunoreactivity … (immunoblot)” below) (HSP72 [2]; 1 day)?
A: mild increase in immunoreactivity

Q: What about the “immunoreactivity … (immunoblot)” value (HSP72 [2]; 3 days) of the same substance?
A: increased HSP72 expression; also recorded: strong increase in immunoreactivity

Q: And the “immunoreactivity … (immunoblot)” value (HSP72 [2]; 7 days)?
A: increased HSP72 expression; also recorded: strong increase in immunoreactivity

Q: And the “HSP72 expression (immunoreactive intensity) in the RGCL” value (HSP72 [3]; control (normal IOP) retinas vs vehicle-alone controls)?
A: increased expression of HSP72; also recorded: Increased immunoreactivity of HSP72

Q: And the “HSP72 expression (immunoreactive intensity) in the RGCL” value (HSP72 [3]; retinas with IOP elevation, 1 week)?
A: apparently further increased

Q: What about the “expression of HSC70 in RGCL (immunoreactive intensity)” value (HSC70) of the same substance?
A: no statistically significant difference; also recorded: No change in HSC70 immunoreactivity

Q: And the “cells in the RGCL (cresyl violet)” value ([4]; 5 weeks of elevated IOP)?
A: 2697±70 cells/mm2

Q: What about the “effect on loss of cells in the RGCL (in words)” value ([4]; 5 weeks of elevated IOP) of the same substance?
A: inhibited the loss of cells

Q: And the “cells in the RGCL (cresyl violet)” value ([4]; contralateral control retinas)?
A: 2644±59 cells/mm2

Q: And the “effect on number of cells in the RGCL (in words)” value ([4]; contralateral control retinas)?
A: no significant effect

Q: And the “immunoreactivity of HSP72 in other retinal layers” value (HSP72 [5]; GGA i.p. 7 days)?
A: No remarkable change

Q: What about the “immunoreactivity of HSP72 in cells in the RGCL (immunohistochemical staining)” value (HSP72 [5]; GGA i.p. 7 days vs vehicle-treated) of the same substance?
A: Increased immunoreactivity of HSP72

Q: What about the “levels of HSP72 in RGCs (immunohistochemical staining)” value (HSP72 [5]; oral daily dose of GGA for one week, assayed one week after last oral administration) of the same substance?
A: increased levels of HSP72
